# What was measured:
# [1] = test system: S. epidermidis (derived from ATCC ® 14990 ™); assay: Bacteriostasis, log reduction; format: cell-based; conditions: S. epidermidis ATCC 14990
# Method: (§1) In order to assess the log reduction capabilities of compounds of Formula (1), testing was performed on organisms that are found in acute and chronic wounds. Triplicate tubes were prepared for each bacteria using 50 μL of inoculum (about 1×10^6 CFU/mL) which was added to 450 μL of compound solution (compound of Formula (I)) (or 100 μL of inoculum in 900 μL of compound solution), resulting in a final inoculum of about 1×10^5 CFU/mL, as shown in Table 4.
# (§2) Tubes were mixed with a vortex and then incubated in a shaking incubator at 175 RPM and 35° C. to 37° C.
# (§3) Positive control in Tables 5a and 5b was 1 mL of 0.89% saline with 1 mL of the 1×10^6 CFU/mL of the organism.
# (§4) For Compounds 1, 7, 8, 10, and 18 in Tables 6, 7-A, 7-B, 8, 9, 10-A, 10-B, and 11: The compound solutions were prepared with compound (30 mg), polysorbate 20 (1.6 mL), butylene glycol (1.6 mL), phosphatidyl choline (0.66 g), ethanol (1.6 mL), hydroxypropyl cellulose (0.26 g), and ultra pure water (24.9 mL).
# (§5) XAV939 Control in Table X1 was XAV939 (30 mg), polysorbate 20 (1.6 mL), butylene glycol (1.6 mL), phosphatidyl choline (0.66 g), ethanol (1.6 mL), ultra pure water (24.9 mL), and hydroxypropyl cellulose (0.26 g).
# (§6) GO-HA Control in Table X2 was GO-HA (30 mg), polysorbate 20 (1.6 mL), butylene glycol (1.6 mL), phosphatidyl choline (0.66 g), ethanol (1.6 mL), ultra pure water (24.9 mL), and hydroxypropyl cellulose (0.26 g).
# (§7) For Compound 18+GO-HA in Tables 6 and X4: compound 18 (45 mg), GO-HA (45 mg), polysorbate 20 (2 mL), butylene glycol (2 mL), phosphotidyl choline (0.5 g), ethanol (2 mL), hydroxypropyl cellulose (0.40 g), and ultra pure water (40 mL).
# (§8) For XAV939+GO-HA in Tables 6 and X3-A, and X3-B: XAV939 (45 mg), GO-HA (45 mg), butylene glycol (2 mL), polysorbate 20 (2 mL), phosphotidyl choline (0.5 g), ethanol (2 mL), hydroxypropyl cellulose (0.40 g), and ultra pure water (40 mL).
# (§9) Testing was performed at two time points: 18 to 24 hours, and […].
# [2] = test system: E. coli (derived from ATCC ® 8739 ™); assay: Bacteriostasis, log reduction; format: cell-based; conditions: E. coli ATCC 8739
# Method: as §1, §2, §3, §4, §5, §6, §7, §8, §9
# [3] = test system: E. coli (derived from ATCC ® 25922 ™); assay: Bacteriostasis, log reduction; format: cell-based; conditions: E. coli ATCC 25922
# Method: as §1, §2, §3, §4, §5, §6, §7, §8, §9
# [4] = test system: P. aeruginosa (derived from ATCC ® 15442 ™); assay: Bacteriostasis, log reduction; format: cell-based; conditions: P. aeruginosa ATCC 15442
# Method: as §1, §2, §3, §4, §5, §6, §7, §8, §9
# [5] = test system: S. aureus (derived from ATCC ® 6538 ™); assay: Bacteriostasis, log reduction; format: cell-based; conditions: S. aureus ATCC 6538
# Method: as §1, §2, §3, §4, §5, §6, §7, §8, §9
# [6] = test system: new porcine skin; assay: Energy peak of healed wound; format: in vivo; conditions: day 21
# Method: Additional tests were performed including elasticity (Table 12); max force (Table 13); tensile strength (strain) (Table 14); energy peak (Table 15); rete-ridge formation; and collagen organization (plane polarized light) (FIG. 24) of the healed wound sites, described as follows.
# A is saline (control), B is serum formulation (vehicle), C is GO-HA (vehicle), D is Compound 1; E is Compound 1+GO-HA; F is Compound 8; G is Compound 8+GO-HA; H is Compound 10; and J is Compound 10+GO-HA.
# Energy Peak (N*mm) is the maximum force applied to a material over time. All compounds of Formula (I) tested with or without GO-HA ranged from 5% to 41% improvement in energy peak compared to the saline control. […] The vehicle, GO-HA, provided a 61% improvement in energy peak over the saline control.
# [7] = test system: P. vulgaris (derived from ATCC ® 8427 ™); assay: Bacteriostasis, log reduction; format: cell-based; conditions: P. vulgaris ATCC 8427
# Method: as §1, §2, §3, §4, §5, §6, §7, §8, §9
# [8] = test system: S. pyogenes (derived from ATCC ® 19615 ™); assay: Bacteriostasis, log reduction; format: cell-based; conditions: S. pyogenes ATCC 19615
# Method: as §1, §2, §3, §4, §5, §6, §7, §8, §9
# [9] = test system: S. maltophilia (derived from ATCC ® 13637 ™); assay: Bacteriostasis, log reduction; format: cell-based; conditions: S. maltophilia ATCC 13637
# Method: as §1, §2, §3, §4, §5, §6, §7, §8, §9
# [10] = test system: A. baumannii (derived from ATCC ® 19606 ™); assay: Bacteriostasis, log reduction; format: cell-based; conditions: A. baumannii ATCC 19606
# Method: as §1, §2, §3, §4, §5, §6, §7, §8, §9
smiles,measurement,setting,value
"O=c1[nH]c(-c2ccc(-c3ccc(Br)nc3)cc2)nc2c1CSCC2 [Compound 7, 2-(4-(6-bromopyridin-3-yl)phenyl)-3,5,7,8-tetrahydro-4H-thiopyrano [4,3-d]pyrimidin-4-one]",Average result,[1]; 24 h,2.8 × 10^4
same,Log Reduction,[1]; 24 h,0.4
same,Log Value,[1]; 24 h,4.4
same,Average result,[1]; 72 h,<200
same,Log Reduction,[1]; 72 h,>2.5
same,Log Value,[1]; 72 h,<2.3
same,Average result,[2]; 24 h,7.9 × 10^4
same,Log Reduction,[2]; 24 h,0.4
same,Log Value,[2]; 24 h,4.9
same,Average result,[2]; 72 h,>3.6 × 10^6
same,Log Reduction,[2]; 72 h,No
same,Log Value,[2]; 72 h,>6.6
same,Average result,[3]; 24 h,3.2 × 10^5
same,Log Reduction,[3]; 24 h,No
same,Log Value,[3]; 24 h,5.5
same,Average result,[3]; 72 h,2.7 × 10^4
same,Log Reduction,[3]; 72 h,1.0
same,Log Value,[3]; 72 h,4.4
same,Average result,[4]; 24 h,<200
same,Log Reduction,[4]; 24 h,>3.1
same,Log Value,[4]; 24 h,<2.3
same,Average result,[4]; 72 h,<200
same,Log Reduction,[4]; 72 h,>3.1
same,Log Value,[4]; 72 h,<2.3
same,Average result,[5]; 24 h,7.3 × 10^2
same,Log Reduction,[5]; 24 h,2.4
same,Log Value,[5]; 24 h,2.9
same,Average result,[5]; 72 h,<200
same,Log Reduction,[5]; 72 h,>3.0
same,Log Value,[5]; 72 h,<2.3
"CC(C)(OCCO)c1ccc(-c2nc3c(c(=O)[nH]2)CSCC3)cc1 [Compound 8, 2-(4-(2-(2-hydroxyethoxy)propan-2-yl)phenyl)-3,5,7,8-tetrahydro-4H-thiopyrano[4,3-d]pyrimidin-4-one]",Average result,[1]; 24 h,6.0 × 10^2
same,Log Reduction,[1]; 24 h,2.0
same,Log Value,[1]; 24 h,2.8
same,Average result,[1]; 72 h,<200
same,Log Reduction,[1]; 72 h,>2.5
same,Log Value,[1]; 72 h,<2.3
same,Average result,[2]; 24 h,3.1 × 10^3
same,Log Reduction,[2]; 24 h,1.8
same,Log Value,[2]; 24 h,3.5
same,Average result,[2]; 72 h,6.8 × 10^4
same,Log Reduction,[2]; 72 h,0.5
same,Log Value,[2]; 72 h,4.8
same,Average result,[3]; 24 h,200
same,Log Reduction,[3]; 24 h,3.1
same,Log Value,[3]; 24 h,2.3
same,Average result,[3]; 72 h,<200
same,Log Reduction,[3]; 72 h,>3.1
same,Log Value,[3]; 72 h,<2.3
same,Average result,[4]; 24 h,7.3 × 10^2
same,Log Reduction,[4]; 24 h,2.5
same,Log Value,[4]; 24 h,2.9
same,Average result,[4]; 72 h,<200
same,Log Reduction,[4]; 72 h,>3.1
same,Log Value,[4]; 72 h,<2.3
same,Average result,[5]; 24 h,5.4 × 10^4
same,Log Reduction,[5]; 24 h,0.6
same,Log Value,[5]; 24 h,4.7
same,Average result,[5]; 72 h,<7.4 × 10^3
same,Log Reduction,[5]; 72 h,>1.4
same,Log Value,[5]; 72 h,<3.9
same,improvement in energy peak compared to the saline control,[6],29%
same,Energy Peak,"[6]; topical, individual value 1",2946.121 N*mm
same,Energy Peak,"[6]; topical, individual value 2",5124.987 N*mm
same,Energy Peak,"[6]; topical, individual value 3",2632.780 N*mm
same,Energy Peak,"[6]; topical, individual value 4",2286.458 N*mm
same,Energy Peak,"[6]; topical, individual value 5",1294.14 N*mm
same,"Energy Peak, Mean","[6]; topical, mean",2856.897 N*mm
"COC(=O)NCCOC(C)(C)c1ccc(-c2nc3c(c(=O)[nH]2)CSCC3)cc1 [Compound 18, methyl (2-((2-(4-(4-oxo-3,5,7,8-tetrahydro-4H-thiopyrano[4,3-d]pyrimidin-2-yl)phenyl)propan-2-yl)oxy)ethyl)carbamate]",Average result,[1]; 24 h,8.0 × 10^2
same,Log Reduction,[1]; 24 h,2.0
same,Log Value,[1]; 24 h,2.9
same,Average result,[1]; 72 h,<200
same,Log Reduction,[1]; 72 h,>2.6
same,Log Value,[1]; 72 h,<2.3
same,Average result,[7]; 24 h,<200
same,Log Reduction,[7]; 24 h,>3.6
same,Log Value,[7]; 24 h,<2.3
same,Average result,[7]; 72 h,<200
same,Log Reduction,[7]; 72 h,>3.6
same,Log Value,[7]; 72 h,<2.3
same,Average result,[8]; 24 h,<200
same,Log Reduction,[8]; 24 h,>3.2
same,Log Value,[8]; 24 h,<2.3
same,Average result,[8]; 72 h,<200
same,Log Reduction,[8]; 72 h,>3.2
same,Log Value,[8]; 72 h,<2.3
same,Average result,[2]; 24 h,5.3 × 10^2
same,Log Reduction,[2]; 24 h,1.8
same,Log Value,[2]; 24 h,2.7
same,Average result,[2]; 72 h,<200
same,Log Reduction,[2]; 72 h,>2.2
same,Log Value,[2]; 72 h,<2.3
same,Average result,[3]; 24 h,<200
same,Log Reduction,[3]; 24 h,>2.3
same,Log Value,[3]; 24 h,<2.3
same,Average result,[3]; 72 h,<200
same,Log Reduction,[3]; 72 h,>2.3
same,Log Value,[3]; 72 h,<2.3
same,Average result,[4]; 24 h,<200
same,Log Reduction,[4]; 24 h,>2.9
same,Log Value,[4]; 24 h,<2.3
same,Average result,[4]; 72 h,<200
same,Log Reduction,[4]; 72 h,>2.9
same,Log Value,[4]; 72 h,<2.3
same,Average result,[9]; 24 h,<200
same,Log Reduction,[9]; 24 h,>2.8
same,Log Value,[9]; 24 h,<2.3
same,Average result,[9]; 72 h,<200
same,Log Reduction,[9]; 72 h,>2.8
same,Log Value,[9]; 72 h,<2.3
same,Average result,[10]; 24 h,<200
same,Log Reduction,[10]; 24 h,>3.0
same,Log Value,[10]; 24 h,<2.3
same,Average result,[10]; 72 h,<200
same,Log Reduction,[10]; 72 h,>3.0
same,Log Value,[10]; 72 h,<2.3
same,Average result,[5]; 24 h,4.7 × 10^4
same,Log Reduction,[5]; 24 h,0.5
same,Log Value,[5]; 24 h,4.7
same,Average result,[5]; 72 h,9.3 × 10^2
same,Log Reduction,[5]; 72 h,2.2
same,Log Value,[5]; 72 h,3.0

# From patent publication US20260356860A1, “2-SUBSTITUTED 3,4A,5,7,8,8A-HEXAHYDRO-4H-THIOPYRANO[4,3-DJPYRIMIDIN-4-ONES FOR WOUND TREATMENT” (priority 2022, published 2026)
